From patent US10294228B2, “Breathing control modulating compounds, and methods of making and using same” (NEURAD LTD., priority 2015, dated 2019)
Counter-ions that a name gives are not always drawn.

Test system: anesthetized rats
Assay: Anesthetized rat spirometry screening assay (ventilatory activity, minute volume)
Assay type: in vivo
Conditions: increase in minute volume (VE); for change in vivo at 0.3 mg/kg: 0.3 mg/kg IV bolus, read-out: VE % Inc @ 0.3 mg/kg IV; for change in vivo at 3 mg/kg: 3.0 mg/kg IV bolus, read-out: VE % Inc @ 3.0 mg/kg IV
Procedure: Anesthetized rats provide a quick method of screening compounds for respiratory and cardiovascular activity.
Rats were initially anesthetized with 3% isoflurane (inhaled) and femoral artery and vein cannulas were surgically inserted. Once cannulated, the rats were transitioned to urethane anesthesia (1.5 g/kg; i.v.) and a tracheal cut-down was performed. After placing the tracheal cannula, it was connected to a pneumotachometer to record respiratory airflow from which respiratory rate (RR), tidal volume (VT), and their product minute volume (MV, also termed VE) were derived. After the surgical preparation was complete, animals were allowed to stabilize for 30 minutes while respiratory rate, tidal volume, minute volume, blood pressure and heart rate were recorded continuously. Arterial blood gases (ABG) were obtained from arterial blood collected from the femoral artery. ABG measurements were taken before and 6 minutes after vehicle and each dose of compound administered. Compounds being screened were administered via bolus injections through the venous cannula followed by a saline flush (total time of administration is approximately 30 seconds), and the animal was monitored for at least 6 minutes for changes in cardiovascular efforts. Compounds were prepared in formulations identified to ensure optimal solubility. As such, vehicle controls were matched for the formulation of each compound tested. Dosing of the compounds being screened was conducted at 0.1 and/or 0.3 mg/kg and/or 3 mg/kg The next dose was not administered until all cardiovascular and respiratory measures had returned to baseline levels. The positive control compounds used were N-[4,6-di-(n-propylamino)-[1,3,5]triazin-2-yl]-N,O-dimethyl-hydroxylamine or N-[2,6-di-(n-propylamino)-[1,3]pyrimidin-4-yl]-N,O-dimethyl-hydroxylamine (both administered at the end of each screening experiment (0.3 mg/kg dose) to validate the experiment and also to serve as a measure with which the compound being screened could be compared.
Data were analyzed by collecting cardiovascular and respiratory data in 30 second averages (BINs). Data were plotted 2 minutes before challenge and then 6 minutes after challenge.

Structure (SMILES)	change in vivo at 0.3 mg/kg	change in vivo at 3 mg/kg
C=CCNc1nc(NC)c2nc(NC[C@@H](C)O)nc(NC)c2n1 [Compound 145, (R)-1-(6-Allylamino-4,8-bis-methylamino-pyrimido[5,4-d]pyrimidin-2-ylamino)-propan-2-ol]	47%	156%
CCCNc1nc(NC)c2nc(N[C@H]3c4ccccc4C[C@@H]3O)nc(NC)c2n1 [Compound 125, (1S,2S)-1-(4,8-Bis-methylamino-6-propylamino-pyrimido[5,4-d]-pyrimidin-2-ylamino)-indan-2-ol]	38%	84%
CCCNc1nc(NC)nc2c(N[C@H]3CCCC[C@H]3O)nc(NC)nc12 [Compound 82, (1R,2S)-2-(2,6-Bis-methylamino-8-propylamino-pyrimido[5,4-d]pyrimidin-4-ylamino)-cyclohexanol]	102%	132%
CC[C@H](C)Nc1nc(NC)c2nc(NCC(C)(C)O)nc(NC)c2n1 [Compound 103, 1-[6-((S)-sec-Butylamino)-4,8-bis-methylamino-pyrimido[5,4-d]-pyrimidin-2-ylamino]-2-methyl-propan-2-ol]	5%	99%
CNc1nc(NCC(C)(C)O)nc2c(NC)nc(NCc3ncccn3)nc12 [Compound 109, 1-{4,8-Bis-methylamino-6-[(pyrimidin-2-ylmethyl)-amino]-pyrimido[5,4-d]pyrimidin-2-ylamino}-2-methyl-propan-2-ol]	21%	10%
CNc1nc(NC[C@H](C)O)nc2c(NC)nc(N)nc12 [Compound 152, (S)-1-(6-Amino-4,8-bis-methylamino-pyrimido[5,4-d]-pyrimidin-2-ylamino)-propan-2-ol]	7%	89%
CCCNc1nc(NC)c2nc(NCCO)nc(NC)c2n1 [Compound 91, 2-(4,8-Bis-methylamino-6-propylamino-pyrimido[5,4-d]pyrimidin-2-ylamino)-ethanol]	16%	
CNc1nc(NC[C@H](C)O)nc2c(NC)nc(NCC3CC3)nc12 [Compound 142, (S)-1-[6-(Cyclopropylmethyl-amino)-4,8-bis-methylamino-pyrimido[5,4-d]pyrimidin-2-ylamino]-propan-2-ol]	2%	62%
C=C(C)CNc1nc(NCC)c2nc(NC[C@H](C)O)nc(NCC)c2n1 [Compound 175, (S)-1-[4,8-Bis-ethylamino-6-(2-methyl-allylamino)-pyrimido[5,4-d]-pyrimidin-2-ylamino]-propan-2-ol]	75%	134%
CCCNc1nc(NC)nc2c(N[C@H]3c4ccccc4C[C@H]3O)nc(NC)nc12 [Compound 79, (1S,2R)-1-(2,6-Bis-methylamino-8-propylamino-pyrimido[5,4-d]pyrimidin-4-ylamino)-indan-2-ol]	56%	162%
C=CCNc1nc(NC)c2nc(NC[C@H](C)O)nc(NC)c2n1 [Compound 143, (S)-1-(6-Allylamino-4,8-bis-methylamino-pyrimido[5,4-d]pyrimidin-2-ylamino)-propan-2-ol]	81%	150%
CCCNc1nc(NC)nc2c(NCCO)nc(NC)nc12 [Compound 4a, 2-(2,6-Bis-methylamino-8-propylamino-pyrimido[5,4-d]pyrimidin-4-ylamino)-ethanol hydrochloride]	90%	
CNc1nc(N(C)C)nc2c(NC)nc(NCCO)nc12 [Compound 92, 2-(6-Dimethylamino-4,8-bis-methylamino-pyrimido[5,4-d]-pyrimidin-2-ylamino)-ethanol]	49%	148%
CCCNc1nc(NC)nc2c(NC[C@@H](C)O)nc(NC)nc12 [Compound 14a, (R)-1-(2,6-Bis-methylamino-8-propylamino-pyrimido[5,4-d]pyrimidin-4-ylamino)-propan-2-ol Hydrochloride]	88%	
C=C(C)CNc1nc(NC)c2nc(NC[C@H](C)O)nc(NC)c2n1 [Compound 159, (S)-1-[6-(2-Methyl-allylamino)-4,8-bis-methylamino-pyrimido[5,4-d]-pyrimidin-2-ylamino]-propan-2-ol]	61%	160%
CCCNc1nc(NC)c2nc(N[C@@H]3CCC[C@H]3O)nc(NC)c2n1 [Compound 141, (1R,2R)-2-(4,8-Bis-methylamino-6-propylamino-pyrimido[5,4-d]pyrimidin-2-ylamino)-cyclopentanol]	71%	146%
CCCNc1nc(NC)nc2c(N[C@@H]3CCC[C@H]3O)nc(NC)nc12 [Compound 87, (1R,2R)-2-(2,6-Bis-methylamino-8-propylamino-pyrimido[5,4-d]pyrimidin-4-ylamino)-cyclopentanol]	39%	129%
CCCNc1nc(NC)c2nc(NC[C@@H](C)O)nc(NC)c2n1 [Compound 115, (R)-1-(4,8-Bis-methylamino-6-propylamino-pyrimido[5,4-d]pyrimidin-2-ylamino)-propan-2-ol]	60%	151%
CNc1nc(NCC(C)(C)O)c2nc(NC)nc(NCc3ncccn3)c2n1 [Compound 38a, 1-{2,6-Bis-methylamino-8-[(pyrimidin-2-ylmethyl)-amino]-pyrimido[5,4-d]pyrimidin-4-ylamino}-2-methyl-propan-2-ol Hydrochloride]	18%	27%
CCCNc1nc(NC)nc2c(NC[C@H](C)O)nc(NC)nc12 [Compound 12a, (S)-1-(2,6-Bis-methylamino-8-propylamino-pyrimido[5,4-d]pyrimidin-4-ylamino)-propan-2-ol hydrochloride]	114%	
CCCNc1nc(NC)nc2c(N[C@@H]3c4ccccc4C[C@@H]3O)nc(NC)nc12 [Compound 77, (1R,2S)-1-(2,6-Bis-methylamino-8-propylamino-pyrimido[5,4-d]-pyrimidin-4-ylamino)-indan-2-ol]	135%	170%
CCCNc1nc(NC)nc2c(NC3Cc4ccccc4C3O)nc(NC)nc12 (racemic) [Compound 81, 2-(2,6-Bis-methylamino-8-propylamino-pyrimido[5,4-d]-pyrimidin-4-ylamino)-indan-1-ol]	50%	72%
CCCNc1nc(NC)nc2c(NCC(O)CO)nc(NC)nc12 (stereo not drawn) [Compound 75a, 3-(2,6-Bis-methylamino-8-propylamino-pyrimido[5,4-d]pyrimidin-4-ylamino)-propane-1,2-diol Hydrochloride]	158%	180%
CCCNc1nc(NC)nc2c(NC(C)C(C)O)nc(NC)nc12 (stereo not drawn) [Compound 26a, 3-(2,6-Bis-methylamino-8-propylamino-pyrimido[5,4-d]pyrimidin-4-ylamino)-butan-2-ol Hydrochloride]	39%	143%
CC[C@@H](C)Nc1nc(NC)c2nc(NC[C@H](C)O)nc(NC)c2n1 [Compound 101, (S)-1-[6-((R)-sec-Butylamino)-4,8-bis-methylamino-pyrimido[5,4-d]pyrimidin-2-ylamino]-propan-2-ol]	20%	129%
CCCNc1nc(NC)nc2c(N[C@@H]3CCCC[C@@H]3O)nc(NC)nc12 [Compound 84, (1S,2R)-2-(2,6-Bis-methylamino-8-propylamino-pyrimido[5,4-d]pyrimidin-4-ylamino)-cyclohexanol]	169%	184%
CCNc1nc(NCC(C)(C)O)c2nc(NCC)nc(NCC(F)F)c2n1 [Compound 47a, 1-[8-(2,2-difluoro-ethylamino)-2,6-bis-ethylamino-pyrimido[5,4-d]pyrimidin-4-ylamino]-2-methyl-propan-2-ol hydrochloride]	31%	
CCCNc1nc(NCC(F)(F)F)nc2c(NCC(C)(C)O)nc(NCC(F)(F)F)nc12 [Compound 34a, 2-Methyl-1-[8-propylamino-2,6-bis-(2,2,2-trifluoro-ethylamino)-pyrimido[5,4-d]pyrimidin-4-ylamino]-propan-2-ol Hydrochloride]	2%	
CCCNc1nc(NC)c2nc(N[C@@H]3CCCC[C@@H]3O)nc(NC)c2n1 [Compound 135, (1S,2R)-2-(4,8-Bis-methylamino-6-propylamino-pyrimido[5,4-d]pyrimidin-2-ylamino)-cyclohexanol]	22%	142%
CNc1nc(NC[C@@H](C)O)nc2c(NC)nc(N)nc12 [Compound 151, (R)-1-(6-Amino-4,8-bis-methylamino-pyrimido[5,4-d]-pyrimidin-2-ylamino)-propan-2-ol]	0%	95%
